± gives the standard deviation of the averaged measurements.
Tests used:
Experiment in all cases: level (log10 ratio to DMSO vehicle control); higher = higher biomarker level / cell amount than vehicle control
[1] = compound: OCCC(F)(F)C(F)(F)C(F)(F)C(F)(F)C(F)(F)C(F)(F)F [6:2 Fluorotelomer alcohol]; conditions: in DMSO
Procedure: (§1)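 BioMAP Diversity Plus panel of 12 human primary cell co-culture systems (3C, 4H, LPS, SAg, BT, BF4T, BE3C, CASM3C, HDF3CGF, KF3CT, MyoF, Mphg). Compounds were added 1 h before stimulation and left for 24 h (MyoF 48 h; BT 72 h for soluble read-outs or 6 d for IgG). Biomarkers were read by ELISA, cytotoxicity by SRB, PBMC viability and proliferation by Alamar Blue. Each well value was divided by the mean of 8 DMSO control wells on the same plate and log10 transformed; duplicate blinded samples were tested at 4 concentrations.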

[2] = compound: O=C(O)C(F)(F)OC(F)(F)C(F)(F)OC(F)(F)F [Perfluoro-3,6-dioxaheptanoic acid]; conditions: in DMSO
Procedure: as §1

Perfluoropentanoic acid = compound: O=C(O)C(F)(F)C(F)(F)C(F)(F)C(F)(F)F [Perfluoropentanoic acid]; conditions: in DMSO
Procedure: as §1

[3] = compound: OCCCC(F)(F)C(F)(F)C(F)(F)C(F)(F)C(F)(F)C(F)(F)C(F)(F)F [7:3 Fluorotelomer alcohol]; conditions: 6700 nM; in DMSO
Procedure: as §1

[4] = compound: O=C(O)C(F)(F)C(F)(F)C(F)(F)C(F)(F)C(F)(F)C(F)(F)C(F)(F)C(F)F [9-H-Perfluorononanoic acid]; conditions: in DMSO
Procedure: as §1

[5] = compound: C=CC(=O)OCC(F)(F)C(F)(F)C(F)(F)C(F)(F)C(F)(F)C(F)(F)C(F)(F)F [1H,1H-Perfluorooctyl acrylate]; conditions: in DMSO
Procedure: as §1

[6] = compound: OCC(F)(F)OC(F)(F)C(F)(F)OC(F)(F)CO [1H,1H,8H,8H-Perfluoro-3,6-dioxaoctane-1,8-diol]; conditions: in DMSO
Procedure: as §1

[7] = compound: FC(F)(F)C(F)(F)C(F)(F)C(F)(F)C(F)(F)C(F)(F)C(F)(F)C(F)(F)CCS [2-(Perfluorooctyl)ethanthiol]; conditions: in DMSO
Procedure: as §1

Row | Test System | level (log10) ([1]; 6700 nM) | level (log10) ([1]; 20000 nM) | level (log10) ([2]; 6700 nM) | level (log10) ([2]; 20000 nM) | level (log10) ([2]; 60000 nM) | level (log10) (Perfluoropentanoic acid; 6700 nM) | level (log10) (Perfluoropentanoic acid; 20000 nM) | level (log10) (Perfluoropentanoic acid; 60000 nM) | level (log10) [3] | level (log10) ([4]; 6700 nM) | level (log10) ([4]; 20000 nM) | level (log10) ([4]; 60000 nM) | level (log10) ([5]; 6700 nM) | level (log10) ([5]; 20000 nM) | level (log10) ([5]; 60000 nM) | level (log10) ([6]; 6700 nM) | level (log10) ([6]; 20000 nM) | level (log10) ([6]; 60000 nM) | level (log10) ([7]; 6700 nM) | level (log10) ([7]; 20000 nM)
1 | CASM3C:Serum Amyloid A | -0.013 ± 0.0028 | -0.009 ± 0.0042 | -0.038 ± 0.055 | -0.014 ± 0.0085 | -0.002 ± 0.086 | -0.003 ± 0.0071 | -0.013 ± 0.011 | -0.0045 ± 0.033 | -0.0135 ± 0.028 | -0.0295 ± 0.035 | -0.02 | 0.0435 ± 0.053 | 0.03 ± 0.014 | 0.032 ± 0.044 | 0.0485 ± 0.013 | -0.0235 ± 0.044 | -0.0195 ± 0.043 | -0.036 ± 0.025 | -0.0145 ± 0.013 | 0.002 ± 0.047
2 | CASM3C:CD106/VCAM-1 | 0.0105 ± 0.018 | 0.017 ± 0.0099 | 0.0345 ± 0.029 | 0.0105 ± 0.037 | -0.06 ± 0.021 | -0.0225 ± 0.0078 | -0.0565 ± 0.029 | -0.009 ± 0.0057 | -0.012 ± 0.016 | -0.0215 ± 0.012 | -0.019 ± 0.02 | -0.0315 ± 0.005 | 0.007 ± 0.016 | 0.014 ± 0.0014 | -0.0055 ± 0.0092 | 0.0125 ± 0.0078 | -0.005 ± 0.0028 | 0.0015 ± 0.0035 | -0.0135 ± 0.005 | -0.014 ± 0.0099
3 | HDF3CGF:SRB | -0.0245 ± 0.073 | 0.008 ± 0.054 | 0 ± 0.013 | -0.015 ± 0.018 | 0.0175 ± 0.039 | 0.012 ± 0.011 | 0.01 ± 0.018 | 0.0125 ± 0.03 | -0.014 ± 0.027 | 0.022 ± 0.023 | 0.0825 ± 0.03 | 0.148 ± 0.034 | -0.003 ± 0.0099 | 0.0015 ± 0.025 | 0.0115 ± 0.0092 | -0.031 ± 0.0057 | 0.0405 ± 0.033 | -0.0505 ± 0.016 | 0.0135 ± 0.023 | 0.011 ± 0.0085
4 | MyoF:CD106/VCAM-1 | 0.016 ± 0.0071 | 0.0045 ± 0.019 | 0.001 ± 0.048 | -0.0175 ± 0.028 | -0.021 ± 0.051 | 0.0025 ± 0.005 | 0.001 | -0.001 ± 0.0057 | -0.013 ± 0.011 | -0.015 ± 0.02 | -0.0135 ± 0.005 | -0.0125 ± 0.025 | -0.011 ± 0.0042 | -0.0095 ± 0.0035 | -0.024 ± 0.0042 | 0.0075 ± 0.019 | -0.009 ± 0.0071 | -0.0045 ± 0.015 | 0.0155 ± 0.00071 | -0.0735 ± 0.083
5 | 3C:CD62E/E-Selectin | -0.0075 ± 0.043 | -0.024 ± 0.042 | -0.0045 ± 0.016 | -0.02 ± 0.017 | 0.01 ± 0.0071 | -0.0085 ± 0.0035 | 0.0005 ± 0.0064 | 0.0175 ± 0.026 | 0.002 ± 0.014 | -0.009 ± 0.014 | -0.0145 ± 0.0092 | 0.006 ± 0.025 | -0.001 ± 0.0071 | -0.006 ± 0.0099 | 0.0035 ± 0.013 | 0.0085 ± 0.0035 | 0.003 | -0.003 ± 0.0085 | -0.0065 ± 0.03 | -0.0235 ± 0.036
6 | MyoF:Decorin | -0.0055 ± 0.0021 | 0.0085 ± 0.011 | -0.0075 ± 0.03 | -0.013 ± 0.017 | 0.012 ± 0.04 | -0.015 ± 0.0028 | -0.0125 ± 0.0092 | 0.005 ± 0.048 | 0.0355 ± 0.059 | 0.0315 ± 0.0035 | 0.051 ± 0.0071 | 0.093 ± 0.016 | -0.0145 ± 0.011 | -0.005 | 0.003 ± 0.018 | -0.0155 ± 0.011 | 0.003 ± 0.0071 | 0.02 ± 0.02 | -0.0145 ± 0.018 | -0.0105 ± 0.033
7 | KF3CT:SRB | -0.0085 ± 0.0078 | -0.0225 ± 0.005 | 0.0035 ± 0.0021 | -0.0015 ± 0.0021 | -0.0045 ± 0.005 | -0.007 ± 0.0071 | -0.004 ± 0.0014 | 0.0055 ± 0.011 | -0.002 ± 0.0071 | -0.0175 ± 0.005 | -0.019 ± 0.0014 | -0.032 ± 0.0042 | -0.007 ± 0.0014 | -0.0055 ± 0.00071 | -0.002 ± 0.0071 | -0.002 ± 0.0057 | -0.0025 ± 0.0021 | 0.0075 ± 0.023 | -0.0015 ± 0.0021 | 0.002 ± 0.0042
8 | KF3CT:IL-1alpha | 0.003 ± 0.041 | -0.0085 ± 0.011 | -0.011 ± 0.025 | 0.032 ± 0.03 | -0.1 ± 0.067 | -0.004 ± 0.017 | 0.004 ± 0.0028 | -0.0115 ± 0.021 | -0.0135 ± 0.011 | 0.006 ± 0.0071 | -0.0195 ± 0.012 | -0.039 ± 0.035 | -0.0075 ± 0.022 | -0.001 ± 0.0071 | -0.007 ± 0.0028 | -0.029 ± 0.045 | -0.013 ± 0.014 | 0.013 ± 0.023 | -0.0065 ± 0.026 | -0.009 ± 0.0042
9 | lMphg:CD40 | -0.029 ± 0.0057 | -0.0435 ± 0.025 | -0.0125 ± 0.0035 | 0.0065 ± 0.028 | -0.0055 ± 0.036 | 0.0225 ± 0.0092 | -0.0085 ± 0.0064 | 0.0175 ± 0.0078 | -0.0135 ± 0.0078 | 0.014 ± 0.011 | 0.003 ± 0.017 | -0.01 ± 0.024 | -0.0125 ± 0.049 | -0.0125 ± 0.097 | -0.0635 ± 0.039 | -0.015 ± 0.02 | -0.0845 ± 0.0035 | -0.0265 ± 0.0035 | 0.0035 ± 0.086 | 0.017 ± 0.048
10 | HDF3CGF:CD106/VCAM-1 | -0.0175 ± 0.063 | -0.0145 ± 0.042 | -0.033 ± 0.024 | 0.023 ± 0.082 | -0.039 ± 0.061 | -0.0095 ± 0.005 | 0.0035 ± 0.036 | 0.0035 ± 0.022 | -0.0795 ± 0.005 | -0.041 ± 0.018 | -0.064 ± 0.013 | -0.066 ± 0.013 | -0.016 ± 0.011 | -0.031 ± 0.013 | -0.097 ± 0.0057 | -0.0145 ± 0.011 | -0.0145 ± 0.026 | 0.0115 ± 0.018 | -0.0255 ± 0.0064 | -0.0555 ± 0.059
11 | lMphg:IL-1alpha | 0.0025 ± 0.022 | 0.019 ± 0.0085 | -0.0025 ± 0.046 | 0.007 ± 0.035 | -0.005 ± 0.027 | -0.0095 ± 0.022 | -0.0195 ± 0.046 | 0.01 ± 0.05 | 0.017 ± 0.028 | -0.002 ± 0.017 | 0.0105 ± 0.0092 | 0.042 ± 0.057 | 0.0115 ± 0.022 | 0.002 ± 0.038 | 0.0155 ± 0.037 | -0.027 ± 0.09 | -0.036 ± 0.035 | -0.021 ± 0.018 | -0.033 ± 0.078 | -0.0355 ± 0.07
12 | BE3C:MMP-9 | 0.0055 ± 0.0078 | -0.0215 ± 0.022 | -0.0395 ± 0.005 | -0.026 ± 0.0042 | -0.019 ± 0.047 | -0.0325 ± 0.0078 | -0.0105 ± 0.015 | 0.0215 ± 0.035 | 0.0055 ± 0.026 | 0.015 ± 0.02 | 0.0415 ± 0.00071 | 0.0255 ± 0.0021 | -0.0135 ± 0.025 | -0.013 ± 0.024 | -0.022 ± 0.018 | -0.0115 ± 0.028 | 0.02 ± 0.04 | -0.006 ± 0.013 | -0.0195 ± 0.011 | -0.069 ± 0.018
